Patent publication US8399378B2, “Use of neonicotinoids in pest control” (Syngenta Crop Protection LLC, priority 1998, dated 2013)

System: Frankliniella occidentalis
Test: Cotton seedling spray test, action against Frankliniella occidentalis
Assay type: in vivo
Conditions: 20° C, 3 and 6 days; for control (percentage reduction in population, % action): spray 400 ppm; for control level: plot (b) conventional cotton seedlings, 400 ppm compound
Description: (§1) Cotton seedlings expressing the δ-endotoxin CryIIIa on a plot (a) and conventional cotton seedlings on a plot (b) are infected with Frankliniella occidentalis and subsequently sprayed with a spray mixture comprising 400 ppm thiamethoxam. Immediately afterwards, plot (b) is treated with an emulsion spray mixture comprising 400 ppm of the δ-endotoxin CryIIIa. The seedlings of plot (a) and (b) are then incubated at 20° C. The test is evaluated after 3 and 6 days.
The percentage reduction in population (% action) is determined by comparing the number of dead pests on the plants of plot (a) with that on the plants of plot (b).
as §1, with “CryIa(c)” for “CryIIIa”, “CryIa(c).” for “CryIIIa.”

CN1COCN(Cc2cnc(Cl)s2)/C1=N\[N+](=O)[O-] [thiamethoxam, 5-(2-Chlorthiazol-5-ylmethyl)-3-methyl-4-nitroimino-perhydro-1,3,5-oxadiazin]
control (percentage reduction in population, % action) (plot (a) cotton seedlings expressing δ-endotoxin CryIIIa): Improved control | control (percentage reduction in population, % action) (plot (a) cotton seedlings expressing δ-endotoxin CryIa(c)): Improved control | control level (then 400 ppm δ-endotoxin CryIIIa): ≤ 60% | control level (then 400 ppm δ-endotoxin CryIa(c)): ≤ 60%
